Where two headings read alike, the source gives them in different places.
Experiments:
[1] = tested on: A431 skin; assay: MTT growth inhibition, 72 h, A431; assay type: cell-based
[2] = tested on: BE2C neuroblastoma; assay: MTT growth inhibition, 72 h, BE2C; assay type: cell-based; conditions: for GI50: BE2C, MTT, 72 h
[3] = tested on: non-tumour derived MCF10A breast line; assay: MTT growth inhibition, 72 h, MCF10A; assay type: cell-based
[4] = tested on: HT29 colon cells; assay: Mitochondrial membrane potential, TMRE-MtMP assay; assay type: cell-based, human; conditions: treatment at GI50 concentration (FCCP positive control 20 μM)
Description: To study the MtMP changes in treated cells, a TMRE-MtMP Assay Kit (Abcam, Cambridge, MA, USA) was used (see Supplementary Materials).
TMRE was used to stain HT29 colon cells, and treatment with the complexes and ligands was completed at each specific GI50 concentration. The MtMP changes detected are expressed as RFU. Additionally, lower RFU values correspond to a decline in mitochondrial activity. […]
dimethylthiazol-2-yl]-2,5-diphenyltetrazolium bromide) assay and absorbance was read at 540 nm. An eight-point dose response curve was produced from which the GI50 value was calculated, representing the drug concentration at which cell growth was inhibited by 50% based on the difference between the optical density values on day 0 and those at the end of drug exposure. […]
5. Mitochondrial Membrane Potential (MtMP)
In 96-well plates, 25,000 cells/mL of HT29 colon cells in DMEM were seeded. Cells were treated with a GI50 drug concentration for each complex. […]
washed with PBS and stained with 1 μM tetramethylrhodamine, ethyl ester (TMRE) and incubated for 30 min. TMRE was then removed, and cells were then re-washed with PBS (0.2% BSA), after which phenol red free media was added. The plates were directly scanned to measure fluorescence (expressed as RFU), using the Glo-Max®-Multimode […]
microplate reader (Promega Corporation, Alexandra, VIC, Australia) at an […]
For the positive control, 20 μM carbonyl cyanide 4-(trifluoromethoxy) phenylhydrazone (FCCP)) was added to the cells and incubated for 10 min. The cells were washed with PBS (0.2% BSA) and stained with TMRE (1 μM) for 30 min; this was removed and phenol red free media was added, and the final solution was scanned as mentioned above. […]

[5] = target: T1, COX-2 (human) (Homo sapiens, UniProt P35354); assay: COX-2 (human) Inhibitor Screening Assay Kit (ELISA); assay type: biochemical; set-up: concentration or dose not given beside the values
T1 construct: purchased Cayman Chemical Item No. 701080
T1 sequence (P35354 18-604): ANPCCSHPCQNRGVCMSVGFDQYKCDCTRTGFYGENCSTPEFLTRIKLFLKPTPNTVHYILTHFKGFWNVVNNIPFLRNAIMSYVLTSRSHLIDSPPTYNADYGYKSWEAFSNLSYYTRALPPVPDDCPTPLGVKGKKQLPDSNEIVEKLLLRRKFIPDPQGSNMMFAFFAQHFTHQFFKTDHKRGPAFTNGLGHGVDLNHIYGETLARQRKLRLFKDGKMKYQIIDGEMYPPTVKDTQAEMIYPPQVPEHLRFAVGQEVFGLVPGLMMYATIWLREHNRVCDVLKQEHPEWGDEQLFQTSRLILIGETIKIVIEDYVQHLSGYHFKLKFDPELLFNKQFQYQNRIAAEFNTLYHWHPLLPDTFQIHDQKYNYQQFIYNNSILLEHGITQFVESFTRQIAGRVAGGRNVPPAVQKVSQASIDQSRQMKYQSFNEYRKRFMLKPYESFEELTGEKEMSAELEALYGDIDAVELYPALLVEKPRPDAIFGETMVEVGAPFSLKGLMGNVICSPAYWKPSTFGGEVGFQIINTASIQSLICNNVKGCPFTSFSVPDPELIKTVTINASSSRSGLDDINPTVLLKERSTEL
Description: NSAIDs are well recognised as inhibitors of the COX enzymes, COX-1 and COX-2 [37, 42, 45]. […] COX-1 is typically expressed in most tissues and is associated with normal physiological functions, particularly by maintaining prostaglandin production at basal levels. In contrast, COX-2 is involved in the excessive production of prostaglandin during inflammation (or hypoxia), and extensive studies have shown that COX-2 resultant prostaglandins are overexpressed in tumours. […] To explore the COX-2 inhibitory properties of the studied complexes (1–6), ELISA was used against the COX-2 enzyme. […]
6. Cyclooxygenase-2 (COX-2) Inhibition
The standards, samples and assay preparation, and completion were achieved as instructed by the manufacturer. The assay necessitated three steps, being the standards preparation, the COX reaction, and the enzyme immunoassay. The standards were prepared in 2-fold serial dilution of the prostaglandin F2α enzyme-linked immunosorbent assay (ELISA) standard starting at 500 pg/mL to 3.9 pg/mL in ELISA buffer (1X). The COX reaction dilution preparation for the background samples included the addition of background COX-2 (20 μL), which was inactivated in boiling water for 3 min. The background values were generated by adding 10 μL of the inactivated COX-2, 160 μL of the reaction buffer (1X), 10 μL of heme and 10 μL of DMSO (inhibitor vehicle). The COX reaction dilution preparation for the COX-2 100% initial activity samples included the addition 160 μL of the reaction buffer (1X), 10 μL of heme, 10 μL of COX-2 and 10 μL of DMSO (inhibitor vehicle). The COX reaction dilution preparation for the COX-2 inhibitor samples included the addition of 160 μL of the reaction buffer (1X), 10 μL of heme, 10 μL […]
The reaction was then initiated by the addition of 10 μL of arachidonic acid and potassium hydroxide solution (1:1), and […]
enzyme catalysis. The tubes were then vortexed and incubated for 5 min at room […]
temperature. The background samples were diluted with ELISA buffer (1X) 1:100 times […]
and the COX-2 100% initial activity and COX-2 inhibitor samples were diluted 1:2000 and […]
1:4000 times. For the enzyme immunoassay, 100 μL of the ELISA buffer (1X) was added […]
to non-specific binding wells (NSBs), 50 μL of the ELISA buffer (1X) was added to […]
maximum binding wells (B0) and 50 μL of each prostaglandin F2α standard was added to […]
standard wells in duplicates. 50 μL of background sample and 50 μL of COX-2 100% […]
initial activity samples were independently added to the wells in duplicates. Inhibitor […]
samples (50 μL) being investigated were added to the wells in triplicates. Prostaglandin […]
F2α acetyl-cholinesterase (AChE) tracer (50 μL) was added to all wells but the total […]
activity well and blank wells. Prostaglandin F2α ELISA antiserum (50 μL) was added to […]
each well but the total activity well, NSBs and blank wells. The plate was then covered […]
with a plastic seal and incubated overnight at room temperature on an orbital shaker. The […]
wells were then washed five times using kit wash buffer (1X). Ellman’s reagent (200 μL) […]
was then added to each well, as well as 5 μL of the AChE tracer into the total activity […]
well. The plate was then covered with the plastic seal, placed on an orbital shaker in the […]
dark to develop for 2 hours at room temperature. […]
nm using the SpectraMax M2 series multi-mode microplate reader (Molecular Devices, […]

COc1ccc2c(c1)c(CC(=O)OCC(=O)O)c(C)n2C(=O)c1ccc(Cl)cc1 [ACE, acemetacin]
GI50 ([1]; Homo sapiens, A-431): > 50000 nM | GI50 ([2]; Homo sapiens, BE(2)-C): > 50000 nM | GI50 ([3]; Homo sapiens, MCF-10A): > 50000 nM | MtMP Changes ([4]; HT29, 24 h): 494 ± 6 RFU | MtMP Changes ([4]; HT29, 48 h): 371 ± 10 RFU | MtMP Changes ([4]; HT29, 72 h): 295 ± 13 RFU | Percentage COX-2 Inhibitory Activity [5]: 76 ± 8%

N.N.[Cl][Pt][Cl] [Cisplatin, cis-diamminedichloroplatinum(II)]
MtMP Changes ([4]; HT29, 24 h): 256 ± 9 RFU | MtMP Changes ([4]; HT29, 48 h): 236 ± 13 RFU | MtMP Changes ([4]; HT29, 72 h): 199 ± 11 RFU | Percentage COX-2 Inhibitory Activity [5]: 9 ± 2%

COc1ccc2cc([C@H](C)C(=O)[O][Pt+2]3([OH])[N]4C=CC=c5ccc6c(c54)[N]3C=CC=6)ccc2c1.N[C@H]1CCCC[C@@H]1N [Complex 1, [Pt^IV(phen)(SS-DACH)(NPX)(OH)]^2+]
GI50 [1]: 1020 ± 390 nM | GI50 [2]: 1470 ± 67 nM | GI50 [3]: 450 ± 24 nM | MtMP Changes ([4]; HT29, 24 h): 382 ± 11 RFU | MtMP Changes ([4]; HT29, 48 h): 211 ± 12 RFU | MtMP Changes ([4]; HT29, 72 h): 163 ± 5 RFU | Percentage COX-2 Inhibitory Activity [5]: 55 ± 3%

COc1ccc2cc([C@H](C)C(=O)[O][Pt+2]3([OH])[N]4C=CC=c5cc(C)c6c(c54)[N]3C=CC=6)ccc2c1.N[C@H]1CCCC[C@@H]1N (stereo partly drawn) [Complex 2, [Pt^IV(5-Mephen)(SS-DACH)(NPX)(OH)]^2+]
GI50 [1]: 530 ± 180 nM | GI50 [2]: 680 ± 17 nM | GI50 [3]: 310 ± 12 nM | MtMP Changes ([4]; HT29, 24 h): 368 ± 9 RFU | MtMP Changes ([4]; HT29, 48 h): 160 ± 13 RFU | MtMP Changes ([4]; HT29, 72 h): 130 ± 7 RFU | Percentage COX-2 Inhibitory Activity [5]: 44 ± 6%

COc1ccc2cc([C@H](C)C(=O)[O][Pt+2]3([OH])[N]4C=CC=c5c(C)c(C)c6c(c54)[N]3C=CC=6)ccc2c1.N[C@H]1CCCC[C@@H]1N [Complex 3, [Pt^IV(5,6-Me2phen)(SS-DACH)(NPX)(OH)]^2+]
GI50 [1]: 75 ± 33 nM | GI50 [2]: 220 ± 12 nM | GI50 [3]: 36 ± 4 nM | MtMP Changes ([4]; HT29, 24 h): 351 ± 5 RFU | MtMP Changes ([4]; HT29, 48 h): 152 ± 8 RFU | MtMP Changes ([4]; HT29, 72 h): 104 ± 6 RFU | Percentage COX-2 Inhibitory Activity [5]: 37 ± 4%

COc1ccc2c(c1)c(CC(=O)OCC(=O)[O][Pt-2]13([OH])([NH2+][C@H]4CCCC[C@@H]4[NH2+]1)[n+]1cccc4ccc5ccc[n+]3c5c41)c(C)n2C(=O)c1ccc(Cl)cc1 [Complex 4, [Pt^IV(phen)(SS-DACH)(ACE)(OH)]^2+]
GI50 [1]: 930 ± 490 nM | GI50 [2]: 1300 ± 150 nM | GI50 [3]: 360 ± 29 nM | MtMP Changes ([4]; HT29, 24 h): 416 ± 8 RFU | MtMP Changes ([4]; HT29, 48 h): 343 ± 8 RFU | MtMP Changes ([4]; HT29, 72 h): 184 ± 5 RFU | Percentage COX-2 Inhibitory Activity [5]: 48 ± 3%

COc1ccc2c(c1)c(CC(=O)OCC(=O)[O][Pt-2]13([OH])([NH2+][C@H]4CCCC[C@@H]4[NH2+]1)[n+]1cccc4cc(C)c5ccc[n+]3c5c41)c(C)n2C(=O)c1ccc(Cl)cc1 [Complex 5, [Pt^IV(5-Mephen)(SS-DACH)(ACE)(OH)]^2+]
GI50 [1]: 60 ± 45 nM | fold decrease of GI50 relative to the platinum(IV) scaffold [2]: 5.6 fold | GI50 [2]: 250 ± 33 nM | GI50 [3]: 20 ± 5 nM | MtMP Changes ([4]; HT29, 24 h): 412 ± 4 RFU | MtMP Changes ([4]; HT29, 48 h): 284 ± 12 RFU | MtMP Changes ([4]; HT29, 72 h): 140 ± 5 RFU | Percentage COX-2 Inhibitory Activity [5]: 36 ± 2%

Cc1cc2c3c4c1=CC=C[N]4[Pt+2][N]3C=CC=2.N[C@H]1CCCC[C@@H]1N [Complex 5MESS]
MtMP Changes ([4]; HT29, 24 h): 210 ± 15 RFU | MtMP Changes ([4]; HT29, 48 h): 204 ± 6 RFU | MtMP Changes ([4]; HT29, 72 h): 144 ± 5 RFU | Percentage COX-2 Inhibitory Activity [5]: 6 ± 3%

COc1ccc2c(c1)c(CC(=O)OCC(=O)[O][Pt-2]13([OH])([NH2+][C@H]4CCCC[C@@H]4[NH2+]1)[n+]1cccc4c(C)c(C)c5ccc[n+]3c5c41)c(C)n2C(=O)c1ccc(Cl)cc1 [Complex 6, [Pt^IV(5,6-Me2phen)(SS-DACH)(ACE)(OH)]^2+]
GI50 [1]: 16 ± 12 nM | GI50 [2]: 160 ± 19 nM | GI50 [3]: 3.4 ± 1 nM | MtMP Changes ([4]; HT29, 24 h): 387 ± 7 RFU | MtMP Changes ([4]; HT29, 48 h): 284 ± 11 RFU | MtMP Changes ([4]; HT29, 72 h): 112 ± 8 RFU | Percentage COX-2 Inhibitory Activity [5]: 32 ± 3%

Cc1c(C)c2cccnc2c2ncccc12.N[C@H]1CCCC[C@@H]1N.[Pt] [Complex 56MESS, [Pt^II(5,6-Me2phen)(SS-DACH)]^2+]
MtMP Changes ([4]; HT29, 24 h): 156 ± 10 RFU | MtMP Changes ([4]; HT29, 48 h): 162 ± 13 RFU | MtMP Changes ([4]; HT29, 72 h): 103 ± 7 RFU | Percentage COX-2 Inhibitory Activity [5]: 5 ± 4%

COc1ccc2cc([C@H](C)C(=O)O)ccc2c1 [NPX, naproxen]
GI50 ([2]; Homo sapiens, BE(2)-C): > 50000 nM | GI50 ([3]; Homo sapiens, MCF-10A): > 50000 nM | MtMP Changes ([4]; HT29, 24 h): 499 ± 10 RFU | MtMP Changes ([4]; HT29, 48 h): 397 ± 13 RFU | MtMP Changes ([4]; HT29, 72 h): 304 ± 9 RFU | Percentage COX-2 Inhibitory Activity ([5]; 72 h): 83 ± 5%

C1=C[N]2[Pt+2][N]3C=CC=c4ccc(c2c43)=C1.N[C@H]1CCCC[C@@H]1N [PHENSS]
MtMP Changes ([4]; HT29, 24 h): 289 ± 17 RFU | MtMP Changes ([4]; HT29, 48 h): 271 ± 15 RFU | MtMP Changes ([4]; HT29, 72 h): 237 ± 10 RFU | Percentage COX-2 Inhibitory Activity [5]: 8 ± 4%
